Measurements taken from PMC6934184, “Selective DNA-PKcs inhibition extends the therapeutic index of localized radiotherapy and chemotherapy” (The Journal of Clinical Investigation, 2019).

Biological target: T1, FLT3 (Homo sapiens, UniProt P36888)
T1 construct: purchased Thermo Fisher Scientific (Life Technologies) SelectScreen
Assay: SelectScreen Z'LYTE
Assay type: biochemical
Procedure, shortened: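 Percent values come from Thermo SelectScreen profiling of NU5455, combining activity and binding assays. CSF1R was run in Z'LYTE format at Km app ATP, and CAMK1 in Adapta format with ATP listed at 10.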

T1 sequence (P36888 27-993): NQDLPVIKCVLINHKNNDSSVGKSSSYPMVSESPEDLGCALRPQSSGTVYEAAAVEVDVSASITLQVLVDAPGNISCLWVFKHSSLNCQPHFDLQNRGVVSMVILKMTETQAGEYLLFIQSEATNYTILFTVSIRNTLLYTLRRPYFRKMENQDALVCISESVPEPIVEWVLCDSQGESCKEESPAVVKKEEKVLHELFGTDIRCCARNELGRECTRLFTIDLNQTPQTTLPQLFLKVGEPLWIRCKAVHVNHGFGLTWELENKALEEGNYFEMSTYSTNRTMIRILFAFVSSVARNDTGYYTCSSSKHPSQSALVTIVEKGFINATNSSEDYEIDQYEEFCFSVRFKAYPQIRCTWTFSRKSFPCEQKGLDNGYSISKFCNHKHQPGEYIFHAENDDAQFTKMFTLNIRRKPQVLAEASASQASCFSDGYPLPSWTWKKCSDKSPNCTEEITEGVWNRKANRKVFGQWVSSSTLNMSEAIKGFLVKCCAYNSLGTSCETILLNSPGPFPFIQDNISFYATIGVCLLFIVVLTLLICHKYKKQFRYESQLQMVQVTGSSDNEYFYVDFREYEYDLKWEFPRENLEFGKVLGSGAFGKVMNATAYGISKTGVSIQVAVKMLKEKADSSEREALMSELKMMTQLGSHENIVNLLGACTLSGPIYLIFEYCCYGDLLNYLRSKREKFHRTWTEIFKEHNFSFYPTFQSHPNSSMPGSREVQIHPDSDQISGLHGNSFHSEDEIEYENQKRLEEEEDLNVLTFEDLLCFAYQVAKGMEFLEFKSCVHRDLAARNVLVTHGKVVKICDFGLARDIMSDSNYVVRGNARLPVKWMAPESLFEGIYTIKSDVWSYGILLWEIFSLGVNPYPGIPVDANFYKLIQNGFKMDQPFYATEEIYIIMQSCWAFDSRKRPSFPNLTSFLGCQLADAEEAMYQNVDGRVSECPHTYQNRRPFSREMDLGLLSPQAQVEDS

`CN(C(=O)CN1CCOCC1)c1ccc2sc3c(-c4cccc5c(=O)cc(N6CC7CCC(C6)O7)oc45)cccc3c2c1` [NU5455] showed an inhibition at 1 µM of 9.1%.
